The text below walks through data of article PMC10483525, “Synthesis, Structural Investigations, DNA/BSA Interactions, Molecular Docking Studies, and Anticancer Activity of a New 1,4-Disubstituted 1,2,3-Triazole Derivative” (ACS Omega, 2023).

The subject of one assay is EB + CT-DNA adduct. Put plainly: EB displacement (competitive fluorescence emission quenching). Type of assay: binding. As to conditions: EB 5 μM + CT-DNA 25 μM. As to the method:
The competitive emission quenching experiment was carried out using a well-known intercalating agent and fluorescent probe for DNA, ethidium bromide (EtBr).[83] The compound in varying concentrations (0–150) was added to the [EB (5 μM) + CT-DNA (25 μM)] adduct. The excitation wavelength was fixed to 510 nm, and the emission spectra were recorded (λem = 500–700 nm). The quenching efficiency of the compound was analyzed using the Stern–Volmer and Scatchard equations, and the Stern–Volmer (quenching) constant, Ksv, the bimolecular quenching rate constant, kq, binding constant, Kbin, and the number of binding sites per nucleotide, n, were calculated.[84]
Absorption spectral studies […]
sufficiently free of protein. The DNA concentration per nucleotide was determined by […]
sample solutions to eliminate the absorbance of CT-DNA. […]
mixture was allowed to incubate for 5 minutes before the absorption spectrum was recorded.
The intrinsic binding constant Kb of compound was calculated by using Wolfe-Shimmer […]
Fluorescence spectral studies
The fluorescence quenching experiments were performed for additional support for binding of […]
EB+CT-DNA solution. The fluorescence spectra of 200 μL/well solutions in a 96-well plate
were recorded with 510 nm excitation and the emission spectra of constant [EB+CT-DNA] with
varying the compound concentration were recorded (λ em =500–700). […]

In a further assay the test system is HEK-293. Put plainly: MTT assay. The class given is cell-based, human. As to conditions: Homo sapiens, HEK293. As to the method:
(§1) Human cancer cell lines (MDA-MB-231, LNCaP, Caco-2) and a human healthy cell line (HEK-293) were obtained from the European Collection of Cell Cultures. The cells were incubated in a humidified incubator (37 °C, 5% CO2) and cultured under standard conditions in Dulbecco’s modified Eagle medium (DMEM), 10% heat-inactivated fetal bovine serum, 100 U mL^–1 penicillin, 100 U mL^–1 streptomycin, and 4 mM L-glutamine. […] A cell culture medium was used to make further dilutions, while keeping the equivalent of DMF below 0.5% of the total volume.[94] […]
(§2) 7. Cell Viability Inhibition Assay
(§3) MDA-MB-231, LNCaP, Caco-2 and HEK-293 cells (5x10^3 per well) seeded in 96-well plates to assess cell viability by the 3-[4,5-dimethylthiazol-2-yl]-2,5-diphenyltetrazolium bromide (MTT) assay for 24 h at 37°C. Then cells were treated with compound 3 at different concentrations (3-100 µM) at 100μl/well. In parallel, the traditional anticancer agent cisplatin and etoposid was used as positive controls under identical conditions. After 24, 48 and 72 h incubation, 5 mg/ml MTT solution (20 μl/well) was added and cultured for another 4 h. Then, the supernatant was discarded and dimethyl sulfoxide was added (100 μl/well). The absorbance (A) was measured spectrophotometrically at 540 nm by a Microplate Reader (SpectraMax i3x).
(§4) A graph was plotted between the concentrations of the extract versus the percent viability. The […]
(§5) calculated from graph. All assays were performed in three replicates per concentration level. 11 […]
(In general: Tetrazolium dyes change colour on reduction, which living cells bring about.)

In another assay the test system is LNCaP. Description: MTT assay. As to conditions: for IC50: Homo sapiens, LNCaP. The class given is cell-based, human. As to the method: as §1, §2, §3, §4, §5
In the next assay the test system is MDA-MB-231. Put plainly: MTT assay. Type of assay: cell-based, human. As to conditions: for IC50: Homo sapiens. As to the method: as §1, §2, §3, §4, §5
A further assay concerns Caco-2 cells. Put plainly: ROS determination (flow cytometry). Type of assay: cell-based, human. As to conditions: Caco-2, 48 h, 0, 7.5, 1.5, and 30 μM. As to the method: Biosciences, San Jose, CA, USA)
The intracellular ROS generation was evaluated using The Total Reactive Oxygen Species
(ROS) Assay Kit. Caco2 cells (5x10^5 per well) were seeded in 6-well plates and were incubated for 24 h in a 37°C incubator with 5% CO2. Then cells were treated with compound 3 ([…]) for 48 h to induce production of ROS. Cells were harvested and incubated with 10 […] H2DCFDA for 30 min at 37°C incubator with 5% CO2, followed by resuspending three times with pre-warmed HBSS (2000 rpm×3 min). Total ROS levels in live cells were measured using a flow cytometry (BD Biosciences, San Jose, CA, USA).

The mark [1] stands for this setting: 48 h, SI = IC50 on normal cells/IC50 on cancer cells.

Structures are written as SMILES.

In general, IC50 refers to the concentration at which inhibition is half-maximal. Low readings indicate greater potency, high ones weaker potency. As to `O=Cc1ccc(OCc2cn(-c3ccc(Cl)c(Cl)c3)nn2)cc1O` [Compound 3, 4-((1-(3,4-Dichlorophenyl)-1H-1,2,3-triazol-4-yl)methoxy)-2-hydroxybenzaldehyde], the “Ksv (Stern–Volmer quenching constant)” value with EB + CT-DNA adduct (compound 0–150 μM, λex 510 nm, emission 602 nm) is given as 4.13 × 10^3 M^–1. Moreover, the “Kbin (binding constant)” value in the assay on EB + CT-DNA adduct (Scatchard equation) is 3.45 × 10^4 M^–1. Further, the IC50 was found to be 43.95 ± 0.2 µM in the assay on HEK-293 (HEK-293, 24 h); 24.44 ± 0.13 µM in the assay on HEK-293 (HEK-293, 48 h); 17.09 ± 0.08 µM in the assay on HEK-293 (HEK-293, 72 h); 44.82 ± 0.09 µM in the assay with LNCaP (24 h); 17.1 ± 0.26 µM in the assay on LNCaP (48 h); 10.05 ± 0.03 µM in the assay with LNCaP (72 h). Moreover, the IC50 was 65.03 ± 0.31 µM with MDA-MB-231 (MDA-MB-231, 24 h); 10.64 ± 0.03 µM with MDA-MB-231 (MDA-MB-231, 48 h); 8.39 ± 0.04 µM in the assay with MDA-MB-231 (MDA-MB-231, 72 h). Moreover, the SI HEK-293/LNCap in the assay on LNCaP (setting [1]) came to 1.43. In the assay on LNCaP (LNCap cells), the “SI, times higher than cisplatin” value came to 8 times. In the assay with MDA-MB-231 (setting [1]), the SI HEK-293/MDA-MB-231 is 2.3. In the assay on Caco-2 cells, the “ROS production (fluorescence intensity)” value is “increased the fluorescence intensity”.
